Assay results taken from ChEMBL document CHEMBL4371076 (J Med Chem, 2019).
pIC50: −log10 of the molar value. Calls of active or inactive are those of the source. The rule behind the calls is not given here.

Experiments:
[1] = Fraction unbound in mouse plasma; format: ADME, cell-free
[2] = molecular target: T1, Cytochrome P450 2C8 (Homo sapiens, UniProt P10632); assay: Inhibition of CYP2C8 in human liver microsomes; format: ADME; conditions: human, microsomes
T1 sequence (P10632 whole entry): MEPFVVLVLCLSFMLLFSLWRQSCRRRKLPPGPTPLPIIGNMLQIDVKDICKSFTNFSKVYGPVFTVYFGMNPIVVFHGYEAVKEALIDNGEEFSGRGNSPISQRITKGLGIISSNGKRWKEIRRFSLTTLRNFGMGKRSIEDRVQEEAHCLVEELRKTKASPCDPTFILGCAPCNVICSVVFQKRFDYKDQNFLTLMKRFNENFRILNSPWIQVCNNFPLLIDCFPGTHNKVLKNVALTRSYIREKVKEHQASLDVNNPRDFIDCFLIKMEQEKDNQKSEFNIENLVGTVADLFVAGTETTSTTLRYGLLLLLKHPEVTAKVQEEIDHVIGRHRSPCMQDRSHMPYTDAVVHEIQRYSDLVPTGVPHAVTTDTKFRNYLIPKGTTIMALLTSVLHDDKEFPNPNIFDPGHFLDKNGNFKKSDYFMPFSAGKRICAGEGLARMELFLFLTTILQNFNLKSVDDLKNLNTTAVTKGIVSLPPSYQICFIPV

[3] = molecular target: T2, Cytochrome P450 2B6 (Homo sapiens, UniProt P20813); assay: Inhibition of CYP2B6 in human liver microsomes; format: ADME; conditions: human, microsomes
T2 sequence (P20813 whole entry): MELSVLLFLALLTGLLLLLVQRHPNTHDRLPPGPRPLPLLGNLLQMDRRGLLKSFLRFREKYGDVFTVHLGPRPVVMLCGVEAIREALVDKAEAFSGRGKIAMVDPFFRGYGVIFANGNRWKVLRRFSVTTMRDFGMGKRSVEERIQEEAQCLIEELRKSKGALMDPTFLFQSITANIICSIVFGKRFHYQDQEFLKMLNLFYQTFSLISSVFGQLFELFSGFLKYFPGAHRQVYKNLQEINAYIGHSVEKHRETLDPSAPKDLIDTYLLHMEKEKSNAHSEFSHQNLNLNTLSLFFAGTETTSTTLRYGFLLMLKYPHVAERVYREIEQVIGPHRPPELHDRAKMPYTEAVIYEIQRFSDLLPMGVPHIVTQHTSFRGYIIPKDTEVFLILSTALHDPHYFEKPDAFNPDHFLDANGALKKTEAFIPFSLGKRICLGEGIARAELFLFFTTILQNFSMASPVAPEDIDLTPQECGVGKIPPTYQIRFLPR

[4] = Permeability of the compound at pH 7.4 by PAMPA; format: ADME; conditions: read-out: permeability
[5] = test system: Mus musculus; assay: Analgesic activity in CD1 mouse model of formalin-induced nociception assessed as reduction in formalin-evoked paw flinching/licking response during first phase at 30 mg/kg, po pretreated for 30 mins followed by formalin treatment and measured during first 5 mins post formalin injection; format: functional, organism-based
[6] = molecular target: T3, Cytochrome P450 2C9 (Homo sapiens, UniProt P11712); assay: Time-dependant inhibition of CYP2C9 in human liver microsomes; format: ADME
T3 sequence (P11712 whole entry): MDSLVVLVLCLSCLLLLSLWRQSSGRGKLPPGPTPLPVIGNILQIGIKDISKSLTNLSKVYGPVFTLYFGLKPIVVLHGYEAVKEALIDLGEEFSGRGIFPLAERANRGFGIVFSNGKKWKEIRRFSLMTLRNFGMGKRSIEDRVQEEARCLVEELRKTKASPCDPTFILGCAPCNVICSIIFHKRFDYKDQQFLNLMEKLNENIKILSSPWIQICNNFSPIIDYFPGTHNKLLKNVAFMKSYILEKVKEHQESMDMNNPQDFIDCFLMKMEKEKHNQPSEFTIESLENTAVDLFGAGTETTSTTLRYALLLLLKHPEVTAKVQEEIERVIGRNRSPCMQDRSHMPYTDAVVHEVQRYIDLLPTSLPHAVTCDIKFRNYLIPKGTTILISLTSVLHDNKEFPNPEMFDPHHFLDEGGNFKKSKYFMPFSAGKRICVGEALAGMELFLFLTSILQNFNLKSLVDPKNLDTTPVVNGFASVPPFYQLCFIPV

[7] = molecular target: T4, Cytochrome P450 2D6 (Homo sapiens, UniProt P10635); assay: Time-dependant inhibition of CYP2D6 in human liver microsomes; format: ADME
T4 sequence (P10635 whole entry): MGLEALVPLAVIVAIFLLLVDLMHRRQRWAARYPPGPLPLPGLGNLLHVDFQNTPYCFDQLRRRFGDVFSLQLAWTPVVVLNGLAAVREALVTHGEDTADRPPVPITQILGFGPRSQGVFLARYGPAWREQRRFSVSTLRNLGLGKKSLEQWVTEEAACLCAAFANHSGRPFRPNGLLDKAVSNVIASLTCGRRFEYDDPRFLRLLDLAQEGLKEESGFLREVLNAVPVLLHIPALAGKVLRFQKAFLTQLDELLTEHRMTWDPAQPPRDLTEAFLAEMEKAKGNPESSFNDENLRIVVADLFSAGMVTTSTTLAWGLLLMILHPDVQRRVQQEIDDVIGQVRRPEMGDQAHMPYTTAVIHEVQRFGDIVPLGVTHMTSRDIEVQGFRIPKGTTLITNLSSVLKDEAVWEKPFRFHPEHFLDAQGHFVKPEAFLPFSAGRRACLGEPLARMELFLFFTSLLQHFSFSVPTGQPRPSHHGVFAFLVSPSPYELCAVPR

[8] = molecular target: T4, Cytochrome P450 2D6; assay: Inhibition of CYP2D6 in human liver microsomes; format: ADME; conditions: human, microsomes
[9] = Efflux ratio of permeability in human Caco2 cells; format: ADME, cell-based; conditions: Caco-2
[10] = test system: Mus musculus; assay: Analgesic activity in CD1 mouse model of formalin-induced nociception assessed as reduction in formalin-evoked paw flinching/licking response during second phase at 30 mg/kg, po pretreated for 30 mins followed by formalin treatment and measured during 15 to 45 mins post formalin injection; format: functional, organism-based
[11] = molecular target: T5, Sodium channel protein type 9 subunit alpha (Homo sapiens, UniProt Q15858); assay: Inhibition of recombinant human Nav1.7 expressed in HEK293 cells at -70 mV holding potential by patch clamp electrophysiology method; format: cell-based
T5 sequence (Q15858 whole entry): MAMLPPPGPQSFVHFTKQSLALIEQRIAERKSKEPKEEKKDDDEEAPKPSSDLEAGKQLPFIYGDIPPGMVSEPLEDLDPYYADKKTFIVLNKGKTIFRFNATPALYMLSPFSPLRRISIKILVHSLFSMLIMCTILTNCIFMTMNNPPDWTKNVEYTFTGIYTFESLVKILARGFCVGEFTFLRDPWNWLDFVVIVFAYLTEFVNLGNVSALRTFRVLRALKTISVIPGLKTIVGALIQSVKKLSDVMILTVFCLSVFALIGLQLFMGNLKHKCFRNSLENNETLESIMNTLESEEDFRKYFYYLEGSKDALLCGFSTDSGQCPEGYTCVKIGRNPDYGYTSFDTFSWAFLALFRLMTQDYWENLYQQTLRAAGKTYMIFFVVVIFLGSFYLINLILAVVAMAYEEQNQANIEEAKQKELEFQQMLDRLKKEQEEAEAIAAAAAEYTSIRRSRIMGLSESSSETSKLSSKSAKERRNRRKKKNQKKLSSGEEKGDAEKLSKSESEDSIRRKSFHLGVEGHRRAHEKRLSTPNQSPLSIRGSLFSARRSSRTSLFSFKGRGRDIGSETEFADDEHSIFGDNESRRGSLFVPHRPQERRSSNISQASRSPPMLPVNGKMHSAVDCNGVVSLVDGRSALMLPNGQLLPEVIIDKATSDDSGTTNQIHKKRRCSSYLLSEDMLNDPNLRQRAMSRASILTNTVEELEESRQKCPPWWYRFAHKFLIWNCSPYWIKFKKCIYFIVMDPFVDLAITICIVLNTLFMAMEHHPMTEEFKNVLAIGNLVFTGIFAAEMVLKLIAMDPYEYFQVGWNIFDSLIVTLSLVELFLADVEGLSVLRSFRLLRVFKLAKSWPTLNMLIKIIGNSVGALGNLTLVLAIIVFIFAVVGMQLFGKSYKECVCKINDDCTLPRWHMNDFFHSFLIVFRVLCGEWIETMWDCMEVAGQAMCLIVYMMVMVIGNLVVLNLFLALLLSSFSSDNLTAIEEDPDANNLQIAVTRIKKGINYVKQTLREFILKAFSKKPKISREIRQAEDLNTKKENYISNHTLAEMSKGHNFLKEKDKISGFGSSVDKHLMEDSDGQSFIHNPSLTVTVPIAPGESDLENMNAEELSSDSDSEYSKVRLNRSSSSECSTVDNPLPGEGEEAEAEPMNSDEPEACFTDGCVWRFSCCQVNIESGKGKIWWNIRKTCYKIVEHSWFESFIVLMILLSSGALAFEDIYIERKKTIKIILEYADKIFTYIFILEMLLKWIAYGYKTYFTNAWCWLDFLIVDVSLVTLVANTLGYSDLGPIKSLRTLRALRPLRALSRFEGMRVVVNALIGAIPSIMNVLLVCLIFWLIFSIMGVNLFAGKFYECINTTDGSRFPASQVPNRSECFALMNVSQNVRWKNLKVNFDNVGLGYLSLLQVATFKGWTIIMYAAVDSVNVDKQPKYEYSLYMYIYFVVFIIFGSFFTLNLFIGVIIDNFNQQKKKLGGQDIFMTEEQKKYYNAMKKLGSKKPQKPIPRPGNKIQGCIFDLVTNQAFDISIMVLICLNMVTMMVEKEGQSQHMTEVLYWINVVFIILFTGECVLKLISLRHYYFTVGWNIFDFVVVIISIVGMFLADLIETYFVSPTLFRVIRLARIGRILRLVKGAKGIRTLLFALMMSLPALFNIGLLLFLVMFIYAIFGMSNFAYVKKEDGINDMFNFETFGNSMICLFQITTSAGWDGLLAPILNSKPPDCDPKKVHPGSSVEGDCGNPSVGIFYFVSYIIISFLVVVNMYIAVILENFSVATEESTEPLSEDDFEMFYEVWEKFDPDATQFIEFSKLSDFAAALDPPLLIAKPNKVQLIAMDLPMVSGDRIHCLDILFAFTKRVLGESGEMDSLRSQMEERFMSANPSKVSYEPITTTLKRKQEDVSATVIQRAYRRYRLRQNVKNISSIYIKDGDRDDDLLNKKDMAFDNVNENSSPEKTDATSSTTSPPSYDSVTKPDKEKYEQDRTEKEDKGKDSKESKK

[12] = Permeability from apical to basolateral side in human Caco2 cells; format: ADME, cell-based; conditions: Caco-2, read-out: permeability
[13] = molecular target: T3, Cytochrome P450 2C9; assay: Inhibition of CYP2C9 in human liver microsomes; format: ADME; conditions: human, microsomes
[14] = molecular target: T2, Cytochrome P450 2B6; assay: Time-dependant inhibition of CYP2B6 in human liver microsomes; format: ADME
[15] = Unbound plasma concentration in CD1 mouse model of formalin-induced nociception at 30 mg/kg, po; format: ADME, organism-based; conditions: in vivo
[16] = Plasma concentration in CD1 mouse model of formalin-induced nociception at 30 mg/kg, po; format: ADME, organism-based; conditions: read-out: Cp, in vivo
[17] = Metabolic stability in human liver microsomes assessed as parent compound remaining at 0.5 uM after 10 mins; format: ADME, Microsome; conditions: read-out: Stability
[18] = Toxicity in CD1 mouse model of formalin-induced nociception assessed as prostration or sedation at 30 mg/kg, po; format: organism-based; conditions: in vivo
[19] = molecular target: T6, Cytochrome P450 2C19 (Homo sapiens, UniProt P33261); assay: Inhibition of CYP2C19 in human liver microsomes; format: ADME; conditions: human, microsomes
T6 sequence (P33261 whole entry): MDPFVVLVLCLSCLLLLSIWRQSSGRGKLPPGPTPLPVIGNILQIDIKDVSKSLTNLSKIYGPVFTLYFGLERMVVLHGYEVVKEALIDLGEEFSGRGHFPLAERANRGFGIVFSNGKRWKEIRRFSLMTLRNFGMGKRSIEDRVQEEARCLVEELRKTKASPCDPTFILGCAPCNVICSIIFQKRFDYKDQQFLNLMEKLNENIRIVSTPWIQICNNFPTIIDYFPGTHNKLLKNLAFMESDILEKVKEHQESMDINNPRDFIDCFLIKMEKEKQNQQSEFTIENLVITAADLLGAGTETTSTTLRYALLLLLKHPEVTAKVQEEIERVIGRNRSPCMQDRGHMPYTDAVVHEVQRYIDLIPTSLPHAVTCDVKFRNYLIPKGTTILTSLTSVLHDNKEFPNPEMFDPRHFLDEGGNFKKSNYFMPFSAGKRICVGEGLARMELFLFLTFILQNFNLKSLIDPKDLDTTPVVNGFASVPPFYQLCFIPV

[20] = molecular target: T7, Cytochrome P450 3A4 (Homo sapiens, UniProt P08684); assay: Inhibition of CYP3A4 in human liver microsomes; format: ADME; conditions: human, microsomes
T7 sequence (P08684 whole entry): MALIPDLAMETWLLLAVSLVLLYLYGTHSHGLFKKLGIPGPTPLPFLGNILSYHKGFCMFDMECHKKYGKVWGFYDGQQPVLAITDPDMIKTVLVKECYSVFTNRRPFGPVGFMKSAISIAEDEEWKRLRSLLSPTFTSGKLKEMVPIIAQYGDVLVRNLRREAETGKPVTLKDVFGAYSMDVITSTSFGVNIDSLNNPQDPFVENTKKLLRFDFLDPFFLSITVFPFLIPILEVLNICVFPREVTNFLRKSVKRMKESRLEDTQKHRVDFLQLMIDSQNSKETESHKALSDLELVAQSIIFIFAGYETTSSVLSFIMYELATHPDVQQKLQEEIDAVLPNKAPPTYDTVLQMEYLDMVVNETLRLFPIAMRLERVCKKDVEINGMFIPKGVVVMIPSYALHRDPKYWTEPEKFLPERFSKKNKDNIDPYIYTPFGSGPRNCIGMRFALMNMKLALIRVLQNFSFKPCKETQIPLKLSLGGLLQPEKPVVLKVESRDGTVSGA

[21] = molecular target: T8, Sodium channel protein type 9 subunit alpha (Mus musculus, UniProt Q62205); assay: Inhibition of recombinant mouse Nav1.7 expressed in HEK293 cells at -70 mV holding potential by patch clamp electrophysiology method; format: cell-based
[22] = molecular target: T7, Cytochrome P450 3A4; assay: Time-dependant inhibition of CYP3A4 in human liver microsomes; format: ADME
[23] = Metabolic stability in mouse liver microsomes assessed as parent compound remaining at 0.5 uM after 10 mins; format: ADME, Microsome; conditions: read-out: Stability
[24] = molecular target: T1, Cytochrome P450 2C8; assay: Time-dependant inhibition of CYP2C8 in human liver microsomes; format: ADME
[25] = Fraction unbound in human plasma; format: ADME, cell-free
[26] = Permeability of the compound at pH 5.5 by PAMPA; format: ADME; conditions: read-out: permeability
[27] = Toxicity in CD1 mouse model of formalin-induced nociception assessed as hypothermia at 30 mg/kg, po; format: organism-based; conditions: in vivo
[28] = molecular target: T8, Sodium channel protein type 9 subunit alpha; assay: Inhibition of Nav1.7 in mouse DRG neurons at -70 mV holding potential by patch clamp electrophysiology method
[29] = molecular target: T6, Cytochrome P450 2C19; assay: Time-dependant inhibition of CYP2C19 in human liver microsomes; format: ADME
[30] = Metabolic stability in rat liver microsomes assessed as parent compound remaining at 0.5 uM after 10 mins; format: ADME, Microsome; conditions: read-out: Stability
[31] = Permeability from basolateral to apical side in human Caco2 cells; format: ADME, cell-based; conditions: Caco-2, read-out: permeability
[32] = Drug uptake in DRG neurons of CD1 mouse model of formalin-induced nociception at 30 mg/kg, po; format: ADME, organism-based, DRG neuron; conditions: in vivo, read-out: Drug uptake
[33] = Unbound drug level in DRG neurons of CD1 mouse model of formalin-induced nociception at 30 mg/kg, po; format: ADME, organism-based, DRG neuron; conditions: in vivo
[34] = molecular target: Sodium channel protein type 5 subunit alpha (Homo sapiens, UniProt Q14524); assay: Inhibition of human Nav1.5 expressed in HEK293 cells after 600 secs at -50 mV holding potential by ion works barracuda population patch clamp method; format: cell-based
[35] = molecular target: T5, Sodium channel protein type 9 subunit alpha; assay: Inhibition of human Nav1.7 expressed in HEK293 cells after 600 secs at -60 mV holding potential by ion works barracuda population patch clamp method; format: cell-based

Row | Structure (SMILES) | fraction unbound [1] | inhibition (INH) [2] | inhibition (INH) [3] | Papp [4] [×10⁻⁶ cm/s] | Activity [5] | TDI [6] | TDI [7] | inhibition (INH) [8] | efflux ratio [9] | Activity [10] | pIC50 [11] | Papp A→B [12] [×10⁻⁶ cm/s] | inhibition (INH) [13] | TDI [14] | Cp(f) [15] [µM] | concentration [16] [µM] | remaining at 10 min, 0.5 µM [17] [%] | Activity [18] | inhibition (INH) [19] | inhibition (INH) [20] | other results
1 | Cn1cc(-c2ccc(C(F)F)cc2)c2cc(F)c(C(=O)NS(=O)(=O)C3CC3)cc21 | 0.007 | Not Active | Not Active | 6 | inactive | Not Active | Not Active | Not Active | 2.4 | inactive | 7.92 | 8.1 | Not Active | Not Active | 1.211 | 173 | 93 | Non-Toxic | Not Active | Not Active | pIC50 [21]: 6.64; TDI [22]: Not Active; remaining at 10 min, 0.5 µM [23]: 86%; TDI [24]: Not Active; fraction unbound [25]: 0.003; Papp [26]: 32.5 ×10⁻⁶ cm/s; Activity [27]: Non-Toxic; pIC50 [28]: 7.92; TDI [29]: Not Active; remaining at 10 min, 0.5 µM [30]: 82%; Papp B→A [31]: 19.5 ×10⁻⁶ cm/s
2 | CC(C)COc1ccc(-c2cn(C)c3cc(C(=O)NS(=O)(=O)C4CC4)c(F)cc23)cn1 | 0.006 | Not Active | Not Active | 25.4 | inactive | Not Active | Not Active | Not Active | 1.6 | inactive | 7.72 | 12 | Not Active | Not Active | 0.792 | 132 | 100 | Non-Toxic | Not Active | Not Active | pIC50 [21]: 7.43; TDI [22]: Not Active; remaining at 10 min, 0.5 µM [23]: 98%; TDI [24]: Not Active; fraction unbound [25]: 0.024; Papp [26]: 85.1 ×10⁻⁶ cm/s; Activity [27]: Non-Toxic; pIC50 [28]: 7.62; TDI [29]: Not Active; remaining at 10 min, 0.5 µM [30]: 78%; Papp B→A [31]: 18.9 ×10⁻⁶ cm/s
3 | O=S(=O)(Nc1nccs1)c1cc(Cl)c(NCC23CCCN2CCC3)cc1F | – | – | – | – | inactive | – | – | – | – | – | – | – | – | – | 0.34 | 1.4 | – | – | – | – | concentration [32]: 0.34 µM; Drug uptake(free) [33]: 340 nM
4 | Cn1cc(-c2ccc(C(F)(F)F)cc2)c2cc(F)c(C(=O)NS(=O)(=O)C3CC3)cc21 | 0.0035 | Not Active | Not Active | 32.3 | inactive | Not Active | Not Active | Not Active | 1.9 | inactive | 8.30 | 4.6 | Not Active | Not Active | 0.49 | 140 | 100 | Non-Toxic | Not Active | Not Active | pIC50 [21]: 7.57; TDI [22]: Not Active; TDI [24]: Not Active; fraction unbound [25]: 0.0025; Papp [26]: 166 ×10⁻⁶ cm/s; Activity [27]: Non-Toxic; pIC50 [28]: 8.30; TDI [29]: Not Active; remaining at 10 min, 0.5 µM [30]: 100%; Papp B→A [31]: 8.6 ×10⁻⁶ cm/s
5 | CC(C)COc1ncc(-c2cn(C)c3cc(C(=O)NS(=O)(=O)C4CC4)c(F)cc23)cc1Cl | 0.002 | Not Active | Not Active | 31 | inactive | Not Active | Not Active | Not Active | 3 | inactive | 8.48 | 3.4 | Not Active | Not Active | 0.116 | 58 | 100 | Non-Toxic | Not Active | Not Active | concentration [32]: 11 µM; pIC50 [34]: 5.29; pIC50 [21]: 8.00; TDI [22]: Not Active; remaining at 10 min, 0.5 µM [23]: 100%; TDI [24]: Not Active; fraction unbound [25]: < 0.001; Papp [26]: 33.5 ×10⁻⁶ cm/s; Activity [27]: Non-Toxic; pIC50 [35]: 6.64; TDI [29]: Not Active; remaining at 10 min, 0.5 µM [30]: 37%; Papp B→A [31]: 10.2 ×10⁻⁶ cm/s
